From patent US5492839A (priority 1994, dated 1996)
Like-named read-outs stand apart in the source and are kept apart here.

Columns and labels:
[1] = target: anti-ryanodine antibodies; test: Competitive radioimmunoassay: inhibition of [3H]ryanodine-antibody binding (dextran-coated charcoal assay); set-up: species or system rabbit; details: for binds times less tightly than ryanodine (antibody): relative to ryanodine
Procedure: Binding was performed in triplicate in 1.5 ml polypropylene tubes. […] Following the addition of serial dilutions of antibody, the tubes were shaken and incubated for 1 h at room temperature. The tubes were placed on ice for 10 min and then 0.2 ml of stirred, ice-cold dextran-coated charcoal (0.0625% Dextran T-70, 0.625% Norit A charcoal in TSG) was added to each tube. The tubes were shaken and incubated for an additional 10 min on ice. […] Controls without antiserum were included to determine the amount of radiolabel that could not be precipitated by the charcoal.
Ryanodine derivatives were prepared by serial dilution in TSG.

[2] = target: T1, skeletal muscle ryanodine receptor (Oryctolagus cuniculus, UniProt P11716); test: [3H]Ryanodine competition binding to rabbit skeletal muscle triads
T1 construct: Rabbit skeletal muscle triads were prepared as previously described; from tissue; host or cells: rabbit skeletal muscle triads
T1 sequence (P11716 whole entry): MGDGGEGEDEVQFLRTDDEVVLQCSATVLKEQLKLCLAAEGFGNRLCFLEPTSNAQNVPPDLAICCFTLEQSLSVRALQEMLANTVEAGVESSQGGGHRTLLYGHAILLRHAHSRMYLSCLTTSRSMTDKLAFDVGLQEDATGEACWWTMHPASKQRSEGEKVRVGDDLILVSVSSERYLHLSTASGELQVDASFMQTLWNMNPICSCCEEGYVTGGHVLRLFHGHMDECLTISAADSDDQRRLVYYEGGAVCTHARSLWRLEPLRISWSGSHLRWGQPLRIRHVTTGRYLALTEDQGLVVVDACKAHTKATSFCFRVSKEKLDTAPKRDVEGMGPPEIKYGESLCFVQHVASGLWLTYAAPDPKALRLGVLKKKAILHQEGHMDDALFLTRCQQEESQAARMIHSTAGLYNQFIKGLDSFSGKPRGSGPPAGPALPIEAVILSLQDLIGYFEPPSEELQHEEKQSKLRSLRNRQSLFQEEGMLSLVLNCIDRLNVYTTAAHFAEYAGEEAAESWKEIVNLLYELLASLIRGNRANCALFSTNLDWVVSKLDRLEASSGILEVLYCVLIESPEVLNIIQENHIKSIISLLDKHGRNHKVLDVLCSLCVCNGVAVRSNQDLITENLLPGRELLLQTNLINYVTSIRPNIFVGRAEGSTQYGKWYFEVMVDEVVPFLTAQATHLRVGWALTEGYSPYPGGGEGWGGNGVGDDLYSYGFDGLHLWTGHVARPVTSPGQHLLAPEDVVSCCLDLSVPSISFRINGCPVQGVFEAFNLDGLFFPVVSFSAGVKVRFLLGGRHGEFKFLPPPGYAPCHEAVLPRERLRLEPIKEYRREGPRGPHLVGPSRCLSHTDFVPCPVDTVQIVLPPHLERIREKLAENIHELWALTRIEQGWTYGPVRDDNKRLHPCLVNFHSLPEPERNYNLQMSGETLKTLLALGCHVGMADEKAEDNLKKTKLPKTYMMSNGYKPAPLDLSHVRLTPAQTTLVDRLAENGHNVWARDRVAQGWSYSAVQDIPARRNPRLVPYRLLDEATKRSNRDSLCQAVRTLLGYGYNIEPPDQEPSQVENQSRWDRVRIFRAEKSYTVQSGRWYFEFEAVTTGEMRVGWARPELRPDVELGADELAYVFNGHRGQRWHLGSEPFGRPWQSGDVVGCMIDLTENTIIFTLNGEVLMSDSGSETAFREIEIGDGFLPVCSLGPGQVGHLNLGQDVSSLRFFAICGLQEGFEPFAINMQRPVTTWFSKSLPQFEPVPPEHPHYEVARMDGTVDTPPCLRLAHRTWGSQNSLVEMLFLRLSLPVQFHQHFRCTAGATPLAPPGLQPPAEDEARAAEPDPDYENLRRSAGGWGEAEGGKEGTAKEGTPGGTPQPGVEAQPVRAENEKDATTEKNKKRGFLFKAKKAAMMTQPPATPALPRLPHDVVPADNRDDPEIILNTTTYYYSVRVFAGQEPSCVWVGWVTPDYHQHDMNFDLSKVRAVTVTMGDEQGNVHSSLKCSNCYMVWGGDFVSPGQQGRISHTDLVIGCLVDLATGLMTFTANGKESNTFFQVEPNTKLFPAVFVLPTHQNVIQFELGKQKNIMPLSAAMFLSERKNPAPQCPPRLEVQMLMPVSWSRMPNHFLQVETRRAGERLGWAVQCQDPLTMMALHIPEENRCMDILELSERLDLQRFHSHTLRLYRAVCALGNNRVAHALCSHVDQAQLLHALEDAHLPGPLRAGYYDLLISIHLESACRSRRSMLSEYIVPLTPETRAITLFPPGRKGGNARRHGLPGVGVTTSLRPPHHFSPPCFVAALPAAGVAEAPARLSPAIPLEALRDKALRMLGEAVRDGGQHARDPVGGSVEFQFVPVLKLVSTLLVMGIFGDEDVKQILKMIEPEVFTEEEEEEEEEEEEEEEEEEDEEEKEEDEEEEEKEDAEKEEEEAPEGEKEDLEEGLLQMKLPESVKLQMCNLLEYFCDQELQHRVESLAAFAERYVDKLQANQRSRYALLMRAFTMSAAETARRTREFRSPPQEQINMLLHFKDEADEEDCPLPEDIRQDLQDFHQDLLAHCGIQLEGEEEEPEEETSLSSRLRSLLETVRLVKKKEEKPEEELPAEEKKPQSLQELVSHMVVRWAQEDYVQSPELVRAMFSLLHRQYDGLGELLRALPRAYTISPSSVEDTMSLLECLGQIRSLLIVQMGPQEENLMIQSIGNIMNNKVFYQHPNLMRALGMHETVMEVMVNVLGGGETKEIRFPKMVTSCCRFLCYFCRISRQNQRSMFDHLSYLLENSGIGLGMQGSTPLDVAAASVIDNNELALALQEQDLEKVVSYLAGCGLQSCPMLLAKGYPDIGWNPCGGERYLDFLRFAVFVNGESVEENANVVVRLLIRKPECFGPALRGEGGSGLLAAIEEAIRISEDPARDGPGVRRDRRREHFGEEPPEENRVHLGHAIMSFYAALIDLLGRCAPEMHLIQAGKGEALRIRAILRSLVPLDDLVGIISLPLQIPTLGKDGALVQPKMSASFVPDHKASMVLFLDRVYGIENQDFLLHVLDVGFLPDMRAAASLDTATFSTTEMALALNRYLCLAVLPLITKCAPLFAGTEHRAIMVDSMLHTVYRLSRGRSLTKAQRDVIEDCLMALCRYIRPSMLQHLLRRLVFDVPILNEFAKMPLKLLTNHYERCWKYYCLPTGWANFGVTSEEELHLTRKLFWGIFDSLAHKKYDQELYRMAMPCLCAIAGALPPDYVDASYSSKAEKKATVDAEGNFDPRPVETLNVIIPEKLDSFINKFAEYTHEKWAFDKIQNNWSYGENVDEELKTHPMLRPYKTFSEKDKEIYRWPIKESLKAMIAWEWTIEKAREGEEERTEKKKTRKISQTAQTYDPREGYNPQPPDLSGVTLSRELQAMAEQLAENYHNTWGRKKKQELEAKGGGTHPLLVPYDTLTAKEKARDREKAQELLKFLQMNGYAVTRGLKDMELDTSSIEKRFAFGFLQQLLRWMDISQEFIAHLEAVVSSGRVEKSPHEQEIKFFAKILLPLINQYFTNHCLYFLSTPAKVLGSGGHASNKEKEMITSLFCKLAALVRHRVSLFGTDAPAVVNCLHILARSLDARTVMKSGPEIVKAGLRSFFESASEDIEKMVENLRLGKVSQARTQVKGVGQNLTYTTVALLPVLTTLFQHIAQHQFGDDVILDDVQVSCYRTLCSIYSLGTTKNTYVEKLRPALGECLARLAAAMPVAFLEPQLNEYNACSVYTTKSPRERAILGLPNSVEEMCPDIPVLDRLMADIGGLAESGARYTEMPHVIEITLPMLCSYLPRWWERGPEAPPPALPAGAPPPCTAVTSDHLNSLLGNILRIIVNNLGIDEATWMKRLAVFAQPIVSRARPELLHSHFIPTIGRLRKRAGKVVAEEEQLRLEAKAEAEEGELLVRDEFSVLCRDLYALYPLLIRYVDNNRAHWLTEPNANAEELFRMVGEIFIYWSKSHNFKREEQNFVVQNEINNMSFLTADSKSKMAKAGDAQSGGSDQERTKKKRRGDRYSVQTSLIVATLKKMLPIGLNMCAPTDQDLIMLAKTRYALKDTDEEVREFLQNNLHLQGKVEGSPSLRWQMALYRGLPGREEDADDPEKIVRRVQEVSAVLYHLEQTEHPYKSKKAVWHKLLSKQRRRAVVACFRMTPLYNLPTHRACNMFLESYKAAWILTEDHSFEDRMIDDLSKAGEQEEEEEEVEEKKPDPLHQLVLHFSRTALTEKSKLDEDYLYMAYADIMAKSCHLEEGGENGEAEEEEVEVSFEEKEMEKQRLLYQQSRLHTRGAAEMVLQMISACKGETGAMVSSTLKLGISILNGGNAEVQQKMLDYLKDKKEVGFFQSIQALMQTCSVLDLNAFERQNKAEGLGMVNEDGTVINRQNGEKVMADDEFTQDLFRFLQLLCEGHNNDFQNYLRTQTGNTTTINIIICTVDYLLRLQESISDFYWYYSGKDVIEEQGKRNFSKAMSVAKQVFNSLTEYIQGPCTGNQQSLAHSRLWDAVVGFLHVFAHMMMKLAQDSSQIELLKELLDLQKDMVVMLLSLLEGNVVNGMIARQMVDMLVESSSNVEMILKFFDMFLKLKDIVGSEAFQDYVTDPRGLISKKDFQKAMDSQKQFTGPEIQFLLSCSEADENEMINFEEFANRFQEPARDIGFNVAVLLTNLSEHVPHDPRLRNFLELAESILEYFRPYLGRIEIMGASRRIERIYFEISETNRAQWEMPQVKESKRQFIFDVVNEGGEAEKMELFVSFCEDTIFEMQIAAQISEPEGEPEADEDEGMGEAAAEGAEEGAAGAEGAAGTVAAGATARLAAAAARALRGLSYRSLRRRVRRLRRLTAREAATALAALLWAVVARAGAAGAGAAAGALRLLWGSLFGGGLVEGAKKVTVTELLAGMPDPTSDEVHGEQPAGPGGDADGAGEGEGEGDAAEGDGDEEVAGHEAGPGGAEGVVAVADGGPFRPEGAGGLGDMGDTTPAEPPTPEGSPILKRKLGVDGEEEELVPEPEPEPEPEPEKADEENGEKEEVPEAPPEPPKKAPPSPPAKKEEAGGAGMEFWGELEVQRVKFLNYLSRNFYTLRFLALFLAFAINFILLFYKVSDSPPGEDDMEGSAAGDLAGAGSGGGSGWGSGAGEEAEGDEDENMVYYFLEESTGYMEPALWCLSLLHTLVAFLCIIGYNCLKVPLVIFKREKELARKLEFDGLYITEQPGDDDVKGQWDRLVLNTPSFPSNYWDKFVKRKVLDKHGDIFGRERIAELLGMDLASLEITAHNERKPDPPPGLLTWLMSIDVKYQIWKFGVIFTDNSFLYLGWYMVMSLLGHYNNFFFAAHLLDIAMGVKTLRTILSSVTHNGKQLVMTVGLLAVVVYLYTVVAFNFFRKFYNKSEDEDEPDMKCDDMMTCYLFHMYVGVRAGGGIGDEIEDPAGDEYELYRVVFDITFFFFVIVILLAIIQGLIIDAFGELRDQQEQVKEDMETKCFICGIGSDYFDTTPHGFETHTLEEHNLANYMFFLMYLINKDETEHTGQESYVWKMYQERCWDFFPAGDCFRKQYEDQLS
Procedure: Rabbit skeletal muscle triads were prepared as previously described (Sharp et al., J. Biol. Chem. 262: 12309-12315 (1987)). […]

[3] = target: T2, brain ryanodine receptor (brain membranes) (Oryctolagus cuniculus, UniProt P30957); test: [3H]Ryanodine competition binding to brain membranes; set-up: species or system rabbit
T2 construct: Crude rabbit brain membranes were purified as previously described; from tissue; host or cells: crude rabbit brain membranes (microsomes)
Source text: (§1) Canine cardiac junctional SR vesicles were isolated as described previously (Witcher et al., J. Biol. Chem. 266, 1114-11152 (1991)). Crude rabbit brain membranes were purified as previously described (Witcher et al., J. Biol. Chem. 267, 4963-4967 (1992)).

[4] = target: T1, skeletal muscle ryanodine receptor; test: Photoaffinity labeling of skeletal muscle triads with [3H]ABRy; assay type: binding, rabbit
Procedure: Since [^3 H]ABRy contains a photoactivatable azido group, this compound was used to covalently label skeletal muscle triads following equilibrium binding. […] The membranes were then pelleted at 400,000×g for 15 min and resuspended in 1 ml of the binding buffer with 5 mM glutathione. The samples were placed in a plastic petri dish at 4° C. and were exposed to UV light (365 nm) at a distance of 1 cm for 45 min. The membranes were then centrifuged in a microfuge at maximum speed for 15 min. at 4° C. The pellets were resuspended in Laemmli sample buffer.
The proteins were then analyzed by SDS-PAGE (3-12% gradient gels) using the buffer system of Laemmli (Nature 227, 680-685 (1970)). Gels were stained with Coomassie blue or transferred to nitrocellulose for immunoblot analysis as previously described (Witcher et al., Science 261, 486-489 (1993)). […] Gels used for fluorography were first stained with Coomassie blue, destained, soaked in Enlightning (DuPont), and dried under vacuum. The dried gels were then exposed to Kodak XAR-5 film at -80° C. The fluorograms were also analyzed densitometrically using a Molecular Dynamics Model 300A scanning densitometer.

[5] = target: T3, cardiac ryanodine receptor (cardiac membranes) (Canis lupus familiaris, UniProt A0A8I3MT21); test: [3H]Ryanodine competition binding to cardiac membranes; set-up: species or system canine
T3 construct: Canine cardiac junctional SR vesicles were isolated as described previously; from tissue; host or cells: canine cardiac junctional SR vesicles / cardiac microsomes
Source text: as §1

[6] = 1 nM [3H]ryanodine, 1:8,000 dilution of anti-ryanodine antibody, read-out: Inhibition of [^3 H] ryanodine-antibody binding, IC50
[7] = from FIG. 5, unit inferred, read-out: IC50 for binding to anti-ryanodine antibodies
[8] = IC50 for binding to the ryanodine receptor, rabbit skeletal membranes, from FIG. 5, unit inferred

| Structure (SMILES) | IC50 [1, 6] [nM] | IC50 [1, 7] [nM] | binds times less tightly than ryanodine (antibody) [1] | IC50 [2, 8] [nM] | binding to anti-ryanodine antibodies compared with ryanodine (words) [1] | binding to ryanodine receptor / skeletal membranes compared with ryanodine [2] | IC50 [3] [nM] | proteins bound (specificity, words) [4] | IC50 [5] [nM] | binding to anti-ryanodine antibodies compared with ryanodine (words) ([1]; listed as compound 10) | IC50 ([2]; half-maximal inhibition of [3H]ryanodine binding to triads, skeletal muscle triads, 1 nM [3H]ryanodine, 1 hr at 37° C.) [nM] | binding to anti-ryanodine antibodies compared with ryanodine (words) ([1]; listed as compound 11) | binding to anti-ryanodine antibodies compared with ryanodine (words) ([1]; listed as compound 12) | Kd ([1]; method of Muller, read-out: average antibody apparent dissociation constant (Kd) for the [3H]ryanodine-antibody complex) [nM] |
| --- | --- | --- | --- | --- | --- | --- | --- | --- | --- | --- | --- | --- | --- | --- |
| CC(C)C1(O)C(OC(=O)c2ccc[nH]2)C2(O)C3(C)CC4(O)OC5(C(O)C(CSCCCCO)CCC35O)C2(O)C41C (centres unmarked) [Compound 4, 21-(4-Hydroxybutylmercapto)-ryanodine] | 25 | < 1000 | about 10 times | < 1000 |  |  |  |  |  |  |  |  |  |  |
| CC(C)C1(O)C(OC(=O)c2ccc[nH]2)C2(O)C3(C)CC4(O)OC5(C(O)C(CSCCCCOC(=O)c6ccc(N=[N+]=[N-])cc6)CCC35O)C2(O)C41C (centres unmarked) [Compound 6] | 198 | > 100 | ~100 times | > 100 | lowest affinity | lowest affinity |  |  |  |  |  |  |  |  |
| CC(C)C1(O)C(OC(=O)c2ccc[nH]2)C2(O)C3(C)CC4(O)OC5(C(O)C(CSCCOC(=O)C(=[N+]=[N-])C(F)(F)F)CCC35O)C2(O)C41C (centres unmarked) [Compound 7, 21-(2-[3,3,3-Trifluoro-2-diazopropionyloxy]-ethylmercapto)-ryanodine] | 4 | < 1000 |  | < 1000 | little effect on the IC50 |  |  |  |  |  |  |  |  |  |
| CC1CCC2(O)C3(C)CC4(O)OC2(C1OC(=O)CCNC(=O)c1ccc(N=[N+]=[N-])cc1)C1(O)C3(O)C(OC(=O)c2ccc[nH]2)C(O)(C(C)C)C41C (centres unmarked) [Compound 10, 10-O-(3-[4-Azidobenzamido]-propionyl)-ryanodine] | 3.2 | < 100 |  | < 100 | very nearly matched the affinity of native ryanodine | very nearly matched the affinity of native ryanodine | 25 | only is capable of binding to the 565 kDa ryanodine receptor/Ca^2+ release channel | 89 | IC50 values similar to ryanodine | ~37 |  |  |  |
| CC1CCC2(O)C3(C)CC4(O)OC2(C1OC(=O)CCNC(=O)c1cc(N=[N+]=[N-])ccc1[N+](=O)[O-])C1(O)C3(O)C(OC(=O)c2ccc[nH]2)C(O)(C(C)C)C41C (centres unmarked) [Compound 11, 10-O-(3-[2-Nitro-5-azidobenzamido]-propionyl)-ryanodine] | 3.2 | < 100 |  | < 100 | very nearly matched the affinity of native ryanodine | very nearly matched the affinity of native ryanodine |  |  |  |  |  | IC50 values similar to ryanodine |  |  |
| CC1CCC2(O)C3(C)CC4(O)OC2(C1OC(=O)CCNC(=O)c1ccc(C(=O)c2ccccc2)cc1)C1(O)C3(O)C(OC(=O)c2ccc[nH]2)C(O)(C(C)C)C41C (centres unmarked) [Compound 12, 10-O-(3-[4-benzoylbenzamido]-propionyl)-ryanodine] | 6 | < 100 |  | < 100 | very nearly matched the affinity of native ryanodine | very nearly matched the affinity of native ryanodine |  |  |  |  |  |  | IC50 values similar to ryanodine |  |
| CC1CCC2(O)C3(C)CC4(O)OC2(C1O)C1(O)C3(O)C(OC(=O)c2ccc[nH]2)C(O)(C(C)C)C41C (centres unmarked) [Ryanodine, reference compound] | 1.6 | < 10 |  |  | highest affinity | highest affinity |  |  |  |  |  |  |  |  |
| CC1CCC2(O)C3(C)CC4(O)OC2(C1O)C1(O)C3(O)C(OC(=O)c2ccc[nH]2)C(O)(C(C)C)C41C (centres unmarked) [[^3 H]ryanodine, reference compound] |  |  |  |  |  |  |  |  |  |  |  |  |  | 1 |
